Where a name gives a salt, the structure may show the parent alone. Where only a bound is given, the exact number is not on record here.

The data set is described as follows: Hygroscopicity by dynamic vapor sorption (DVS). Format: physicochemical. The conditions noted are these: for water absorbed (DVS): 25° C. and 95% RH; for hygroscopicity (DVS analysis), in words: 25° C. As to the method:
Hygroscopicity was studied using dynamic vapor sorption (DVS, TA Q5000 SA, TA Instruments, New Castle, Del. or DVS, DVS Intrinsic, Surface Measurement Systems, London, UK). A sample (2-20 mg) was placed in an aluminum DVS pan and loaded on the sample side of the twin pan balance. The water sorption and desorption were studied as a function of relative humidity (RH) at 25° C. In 10% RH increments, the relative humidity was increased from 5% RH to 95% RH and then decreased back to 5%. […] Data analysis was performed using Universal Analysis 2000 Version 4.7A (TA Instruments, New Castle, Del.) for TA DVS runs and Microsoft Excel for SMS DVS runs.

Where [1] appears, read: for Mono-BSA Form I up to 85% RH.

As to `Nc1cncc(-c2cn3ccnc3c(Nc3ccc(N4CCN(C5COC5)CC4)cc3)n2)n1` [Compound I Form I, 6-(6-aminopyrazin-2-yl)-N-(4-(4-(oxetan-3-yl)piperazin-1-yl)phenyl)imidazo[1,2-a]pyrazin-8-amine], the “water absorbed (DVS)” value is “about 0.8 wt. %”. The “hygroscopicity (DVS analysis), in words” value under setting [1] is recorded as “slightly hygroscopic”.

For `Nc1cncc(-c2cn3ccnc3c(Nc3ccc(N4CCN(C5COC5)CC4)cc3)n2)n1` [Compound I Form II, 6-(6-aminopyrazin-2-yl)-N-(4-(4-(oxetan-3-yl)piperazin-1-yl)phenyl)imidazo[1,2-a]pyrazin-8-amine], the “water absorbed (DVS)” value is “about 2 wt. %”. Also, under setting [1], the “hygroscopicity (DVS analysis), in words” value is “slightly hygroscopic”.

With `Nc1cncc(-c2cn3ccnc3c(Nc3ccc(N4CCN(C5COC5)CC4)cc3)n2)n1` [Compound I Form V, 6-(6-aminopyrazin-2-yl)-N-(4-(4-(oxetan-3-yl)piperazin-1-yl)phenyl)imidazo[1,2-a]pyrazin-8-amine], the “water absorbed (DVS)” value is on record as “about 0.5 wt. %”. Moreover, the “hygroscopicity (DVS analysis), in words” value under setting [1] was “slightly hygroscopic”.

As for `Nc1cncc(-c2cn3ccnc3c(Nc3ccc(N4CCN(C5COC5)CC4)cc3)n2)n1` [Compound I Hemi-Succinate Form I, 6-(6-aminopyrazin-2-yl)-N-(4-(4-(oxetan-3-yl)piperazin-1-yl)phenyl)imidazo[1,2-a]pyrazin-8-amine], the “hygroscopicity (DVS analysis), in words” value under setting [1] is reported as “slightly hygroscopic”. In addition, the “water uptake (DVS)” value (90% RH at 25° C.) is “about 0.4 wt. %”.

Regarding `Nc1cncc(-c2cn3ccnc3c(Nc3ccc(N4CCN(C5COC5)CC4)cc3)n2)n1` [Compound I Mono-BSA Form I, 6-(6-aminopyrazin-2-yl)-N-(4-(4-(oxetan-3-yl)piperazin-1-yl)phenyl)imidazo[1,2-a]pyrazin-8-amine], the “water absorbed (DVS)” value is on record as more than 15 wt. %. For the same molecule, the “hygroscopicity (DVS analysis), in words” value under setting [1] is recorded as “slightly hygroscopic”. Moreover, the “water uptake (DVS)” value (85% RH at 25° C.) was “about 1.5 wt. %”. Also, the “hygroscopicity (DVS analysis), in words” value (above 85% RH, led to deliquescence) is on record as “very hygroscopic”.

Regarding `Nc1cncc(-c2cn3ccnc3c(Nc3ccc(N4CCN(C5COC5)CC4)cc3)n2)n1` [Compound I Mono-HCl salt Form II, 6-(6-aminopyrazin-2-yl)-N-(4-(4-(oxetan-3-yl)piperazin-1-yl)phenyl)imidazo[1,2-a]pyrazin-8-amine], the “hygroscopicity (DVS analysis), in words” value under setting [1] was “very hygroscopic”. Also, for the setting “90% RH at 25° C.”, the “water uptake (DVS)” value is recorded as “about 16 wt. %”.

With `Nc1cncc(-c2cn3ccnc3c(Nc3ccc(N4CCN(C5COC5)CC4)cc3)n2)n1` [Compound I Sesqui-Adipate Form I, 6-(6-aminopyrazin-2-yl)-N-(4-(4-(oxetan-3-yl)piperazin-1-yl)phenyl)imidazo[1,2-a]pyrazin-8-amine], the “hygroscopicity (DVS analysis), in words” value under setting [1] is on record as “moderately hygroscopic”. Moreover, the “water uptake (DVS)” value (90% RH at 25° C.) is “about 2.1 wt. %”.
